# Assay results as given in ChEMBL document CHEMBL1909046, “DrugMatrix in vitro pharmacology data”.
# Key:
# [1] = biological target: Sodium-dependent dopamine transporter (Homo sapiens, UniProt Q01959); test: DRUGMATRIX: Dopamine Transporter radioligand binding (ligand: [125I] RTI-55); format: cell membranes, CHO-K1, Membrane; details: Not Active = under 50% inhibition at 10 µM
# [2] = biological target: T1, Adenosine receptor A1 (Homo sapiens, UniProt P30542); format: cell membranes, CHO, Membrane;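 note: radioligand binding assay at the adenosine A1 receptor, with DPCPX serving as the labelled ligand; in other assays of this panel Not Active means under 50% inhibition at 10 µM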
# T1 sequence (P30542 whole entry): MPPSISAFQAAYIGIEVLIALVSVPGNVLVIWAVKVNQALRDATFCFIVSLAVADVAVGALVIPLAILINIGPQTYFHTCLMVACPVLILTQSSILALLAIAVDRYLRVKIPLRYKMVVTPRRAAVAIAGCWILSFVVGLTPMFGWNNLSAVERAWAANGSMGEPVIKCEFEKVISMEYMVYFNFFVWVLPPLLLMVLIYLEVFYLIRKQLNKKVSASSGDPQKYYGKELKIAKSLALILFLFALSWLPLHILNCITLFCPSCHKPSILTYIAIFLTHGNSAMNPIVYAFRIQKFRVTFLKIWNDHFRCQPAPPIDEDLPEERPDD
# [3] = biological target: Histamine H2 receptor (Homo sapiens, UniProt P25021); format: cell membranes, CHO-K1, Membrane; details: cho-k1; note: in other assays of this panel Not Active means under 50% inhibition at 10 µM
# [4] = biological target: T2, Muscarinic acetylcholine receptor M4 (Homo sapiens, UniProt P08173); format: cell membranes, CHO-K1, Membrane; details: cho-k1; note: in other assays of this panel Not Active means under 50% inhibition at 10 µM
# T2 sequence (P08173 whole entry): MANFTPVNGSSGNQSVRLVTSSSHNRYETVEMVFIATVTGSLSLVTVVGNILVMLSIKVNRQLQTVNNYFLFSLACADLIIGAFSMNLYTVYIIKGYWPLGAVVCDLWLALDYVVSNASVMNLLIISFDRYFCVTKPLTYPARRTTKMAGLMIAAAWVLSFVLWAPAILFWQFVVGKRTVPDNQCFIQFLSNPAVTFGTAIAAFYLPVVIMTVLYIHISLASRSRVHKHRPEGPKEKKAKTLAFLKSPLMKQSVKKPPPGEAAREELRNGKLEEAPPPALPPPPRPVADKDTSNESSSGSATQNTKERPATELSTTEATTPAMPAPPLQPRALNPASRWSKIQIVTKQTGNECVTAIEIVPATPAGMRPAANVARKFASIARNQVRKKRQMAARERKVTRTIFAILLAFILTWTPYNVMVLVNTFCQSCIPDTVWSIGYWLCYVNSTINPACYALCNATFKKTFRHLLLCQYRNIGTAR
# [5] = DRUGMATRIX: Calcium Channel Type L, Dihydropyridine radioligand binding (ligand: [3H] Nitrendipine); format: cell membranes, Rattus norvegicus, Wistar, Cerebral cortex, Membrane; details: Not Active = under 50% inhibition at 10 µM
# [6] = biological target: Melanocortin receptor 5 (Homo sapiens, UniProt P33032); format: cell membranes, HEK293, Membrane; details: hek293; note: in other assays of this panel Not Active means under 50% inhibition at 10 µM
# Melanocortin receptor 5, sequence (P33032 whole entry): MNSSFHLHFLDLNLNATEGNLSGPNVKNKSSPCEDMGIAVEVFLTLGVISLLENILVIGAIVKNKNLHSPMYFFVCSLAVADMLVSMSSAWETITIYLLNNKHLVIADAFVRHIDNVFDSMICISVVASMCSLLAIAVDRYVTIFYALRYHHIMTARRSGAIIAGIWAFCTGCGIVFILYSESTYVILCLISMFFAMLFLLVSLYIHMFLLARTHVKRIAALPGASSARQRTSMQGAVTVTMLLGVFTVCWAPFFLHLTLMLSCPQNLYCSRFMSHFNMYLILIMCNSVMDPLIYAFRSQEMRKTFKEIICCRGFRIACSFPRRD
# Sodium-dependent dopamine transporter, sequence (Q01959 whole entry): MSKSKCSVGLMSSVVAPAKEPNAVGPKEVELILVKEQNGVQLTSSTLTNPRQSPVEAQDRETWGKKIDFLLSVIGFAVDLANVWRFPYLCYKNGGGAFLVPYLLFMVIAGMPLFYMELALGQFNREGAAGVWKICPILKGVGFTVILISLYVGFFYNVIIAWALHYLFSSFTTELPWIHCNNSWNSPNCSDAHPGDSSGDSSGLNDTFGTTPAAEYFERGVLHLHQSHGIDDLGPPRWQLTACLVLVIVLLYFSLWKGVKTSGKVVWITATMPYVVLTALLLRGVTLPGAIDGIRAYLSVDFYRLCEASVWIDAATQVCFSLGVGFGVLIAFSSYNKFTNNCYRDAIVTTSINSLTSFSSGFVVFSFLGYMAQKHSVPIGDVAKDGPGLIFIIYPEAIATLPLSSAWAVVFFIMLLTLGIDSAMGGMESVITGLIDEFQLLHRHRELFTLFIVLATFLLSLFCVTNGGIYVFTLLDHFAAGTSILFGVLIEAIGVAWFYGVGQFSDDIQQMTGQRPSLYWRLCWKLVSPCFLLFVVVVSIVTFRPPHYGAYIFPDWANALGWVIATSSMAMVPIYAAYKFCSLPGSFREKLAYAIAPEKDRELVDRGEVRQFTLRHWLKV
# Histamine H2 receptor, sequence (P25021 whole entry): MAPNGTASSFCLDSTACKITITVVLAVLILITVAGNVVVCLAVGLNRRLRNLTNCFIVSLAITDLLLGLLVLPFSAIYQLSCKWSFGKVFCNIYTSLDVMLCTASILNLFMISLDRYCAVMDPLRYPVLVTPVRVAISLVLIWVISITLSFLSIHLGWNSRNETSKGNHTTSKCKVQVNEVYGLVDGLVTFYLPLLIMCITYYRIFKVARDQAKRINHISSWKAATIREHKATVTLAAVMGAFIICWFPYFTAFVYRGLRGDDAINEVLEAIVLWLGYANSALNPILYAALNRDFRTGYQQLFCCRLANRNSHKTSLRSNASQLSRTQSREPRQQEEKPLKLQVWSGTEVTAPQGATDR
Molecule,IC50 ([1]; cho-k1),IC50 ([2]; cho),IC50 [3],IC50 [4],IC50 [5],Ki [5],IC50 [6],IC50 ([1]; read-out: IC50),Ki ([1]; read-out: Ki),IC50 ([2]; read-out: IC50),Ki ([2]; read-out: Ki),Ki ([1]; cho-k1),Ki ([2]; cho),Ki [3],Ki [4],Ki [6]
NC[C@H]1O[C@H](O[C@H]2[C@H](O)[C@@H](O[C@H]3O[C@H](CO)[C@@H](O)[C@H](N)[C@H]3O)[C@H](N)C[C@@H]2N)[C@H](O)[C@@H](O)[C@@H]1O [KANAMYCIN],Not Active,Not Active,Not Active,Not Active,Not Active,Not Active,Not Active,,,,,,,,,
CC[C@H](C)C(=O)O[C@H]1C[C@@H](C)C=C2C=C[C@H](C)[C@H](CC[C@@H]3C[C@@H](O)CC(=O)O3)[C@H]21 [LOVASTATIN],,,Not Active,Not Active,Not Active,Not Active,Not Active,10.1 µM,8.03 µM,26.7 µM,15.6 µM,,,,,
CC(C(=O)O)c1ccc(CC2CCCC2=O)cc1 (stereo unspecified) [LOXOPROFEN],Not Active,Not Active,Not Active,Not Active,Not Active,Not Active,Not Active,,,,,,,,,
Cc1cccc(Nc2ccccc2C(=O)O)c1C [MEFENAMIC ACID],Not Active,Not Active,Not Active,Not Active,Not Active,Not Active,Not Active,,,,,,,,,
CC(=O)O[C@]1(C(C)=O)CC[C@H]2[C@@H]3C=C(C)C4=CC(=O)CC[C@]4(C)[C@H]3CC[C@@]21C [MEGESTROL ACETATE],Not Active,Not Active,Not Active,Not Active,Not Active,Not Active,Not Active,,,,,,,,,
COc1ccccc1OCC(O)COC(N)=O (stereo unspecified) [METHOCARBAMOL],Not Active,Not Active,Not Active,Not Active,Not Active,Not Active,Not Active,,,,,,,,,
CN(Cc1cnc2nc(N)nc(N)c2n1)c1ccc(C(=O)N[C@@H](CCC(=O)O)C(=O)O)cc1 [METHOTREXATE],Not Active,Not Active,Not Active,Not Active,Not Active,Not Active,Not Active,,,,,,,,,
COC(=O)c1ccccc1O [METHYL SALICYLATE],Not Active,Not Active,Not Active,Not Active,Not Active,Not Active,Not Active,,,,,,,,,
COc1ccc2cc(CCC(C)=O)ccc2c1 [NABUMETONE],Not Active,Not Active,Not Active,Not Active,Not Active,Not Active,Not Active,,,,,,,,,
O=C(O)c1cccnc1 [NIACIN],Not Active,Not Active,Not Active,Not Active,Not Active,Not Active,Not Active,,,,,,,,,
CNC(=C[N+](=O)[O-])NCCSCc1csc(CN(C)C)n1 [NIZATIDINE],Not Active,Not Active,Not Active,Not Active,Not Active,Not Active,Not Active,,,,,,,,,
C[C@]12C/C(=C/O)C(=O)C[C@@H]1CC[C@@H]1[C@@H]2CC[C@@]2(C)[C@H]1CC[C@]2(C)O [OXYMETHOLONE],Not Active,Not Active,Not Active,Not Active,Not Active,Not Active,Not Active,,,,,,,,,
CC(C)(CO)C(O)C(=O)NCCCO (stereo unspecified) [PANTHENOL],Not Active,Not Active,Not Active,Not Active,Not Active,Not Active,Not Active,,,,,,,,,
COc1ccc(Cc2nccc3cc(OC)c(OC)cc23)cc1OC [PAPAVERINE],Not Active,Not Active,Not Active,Not Active,Not Active,Not Active,Not Active,,,,,,,,,
OCCN1CCN(CCCN2c3ccccc3Sc3ccc(Cl)cc32)CC1 [PERPHENAZINE],Not Active,Not Active,Not Active,Not Active,Not Active,Not Active,Not Active,,,,,,,,,
CCCCC1C(=O)N(c2ccccc2)N(c2ccccc2)C1=O [PHENYLBUTAZONE],Not Active,Not Active,Not Active,Not Active,Not Active,Not Active,Not Active,,,,,,,,,
Cc1cccc(Nc2cc(Cl)nc(SCC(=O)O)n2)c1C [PIRINIXIC ACID],Not Active,Not Active,Not Active,Not Active,Not Active,Not Active,Not Active,,,,,,,,,
CC[C@H](C)C(=O)O[C@H]1C[C@H](O)C=C2C=C[C@H](C)[C@H](CC[C@@H](O)C[C@@H](O)CC(=O)O)[C@H]21 [PRAVASTATIN],Not Active,Not Active,Not Active,Not Active,Not Active,Not Active,Not Active,,,,,,,,,
CC(C)(Sc1cc(C(C)(C)C)c(O)c(C(C)(C)C)c1)Sc1cc(C(C)(C)C)c(O)c(C(C)(C)C)c1 [PROBUCOL],Not Active,Not Active,Not Active,Not Active,Not Active,Not Active,Not Active,,,,,,,,,
COBALT(II) ACETYLACETONATE,Not Active,Not Active,Not Active,Not Active,Not Active,Not Active,Not Active,,,,,Not Active,Not Active,Not Active,Not Active,Not Active
INSULIN HUMAN,Not Active,Not Active,Not Active,Not Active,Not Active,Not Active,Not Active,,,,,Not Active,Not Active,Not Active,Not Active,Not Active
POLYVINYL ALCOHOL,Not Active,Not Active,Not Active,Not Active,Not Active,Not Active,Not Active,,,,,Not Active,Not Active,Not Active,Not Active,Not Active
